Measured values as given in ChEMBL document CHEMBL5131475, “Metallo-β-lactamases inhibitor fisetin attenuates meropenem resistance in NDM-1-producing Escherichia coli” (Eur J Med Chem, 2022).
Values after ≈ are worked out from the molar mass of the structure shown.

Assays:
Format in all cases: functional
Details in all cases: time 18-24 hrs
[1] = tested on: Escherichia coli; test: Antibacterial activity against pET28a-NDM-1 positive Escherichia coli BL21(DE3) isolates assessed as inhibition of bacterial growth incubated for 18 to 24 hrs by CLSI based broth microdilution method
[2] = tested on: Escherichia coli; test: Antibacterial activity against NDM-1 positive Escherichia coli ZC-YN3 isolates assessed as inhibition of bacterial growth incubated for 18 to 24 hrs by CLSI based broth microdilution method
[3] = tested on: Escherichia coli; test: Antibacterial activity against NDM-1 positive MCR1 carrying Escherichia coli ZJ487 isolates assessed as inhibition of bacterial growth incubated for 18 to 24 hrs by CLSI based broth microdilution method
[4] = tested on: Escherichia coli; test: Antibacterial activity against NDM-1 negative Escherichia coli ATCC25922 isolates assessed as inhibition of bacterial growth incubated for 18 to 24 hrs by CLSI based broth microdilution method
[5] = tested on: Escherichia coli; test: Antibacterial activity against NDM-1 negative Escherichia coli BL21(DE3) pET28a isolates assessed as inhibition of bacterial growth incubated for 18 to 24 hrs by CLSI based broth microdilution method

Row | Molecule | MIC [1] [µg/mL] | MIC [2] [µg/mL] | MIC [3] [µg/mL] | MIC [4] [µg/mL] | MIC [5] [µg/mL]
1 | CC1(C)S[C@@H]2[C@H](NC(=O)[C@H](N)c3ccccc3)C(=O)N2[C@H]1C(=O)O [AMPICILLIN] | 853 (≈ 2440 µM) | 853 (≈ 2440 µM) | – | – | –
2 | CO/N=C(\C(=O)N[C@@H]1C(=O)N2C(C(=O)O)=C(COC(C)=O)CS[C@H]12)c1csc(N)n1 [CEFOTAXIME] | 512 (≈ 1120 µM) | 512 (≈ 1120 µM) | – | – | –
3 | CS(=O)(=O)c1ccc([C@@H](O)[C@@H](CF)NC(=O)C(Cl)Cl)cc1 [FLORFENICOL] | 1020 (≈ 2850 µM) | 427 (≈ 1190 µM) | – | – | –
4 | C[C@@H](O)[C@H]1C(=O)N2C(C(=O)O)=C(S[C@@H]3CN[C@H](C(=O)N(C)C)C3)[C@H](C)[C@H]12 [MEROPENEM] | 37.3 (≈ 97.3 µM) | 16 (≈ 41.7 µM) | 21.3 (≈ 55.5 µM) | 0.01 (≈ 0.0261 µM) | 0.01 (≈ 0.0261 µM)
5 | CN[C@H](CC(C)C)C(=O)N[C@H]1C(=O)N[C@@H](CC(N)=O)C(=O)N[C@H]2C(=O)N[C@H]3C(=O)N[C@H](C(=O)N[C@H](C(=O)O)c4cc(O)cc(O)c4-c4cc3ccc4O)[C@H](O)c3ccc(c(Cl)c3)Oc3cc2cc(c3O[C@@H]2O[C@H](CO)[C@@H](O)[C@H](O)[C@H]2O[C@H]2C[C@](C)(N)[C@H](O)[C@H](C)O2)Oc2ccc(cc2Cl)[C@H]1O [VANCOMYCIN] | 683 (≈ 471 µM) | 512 (≈ 353 µM) | – | – | –
6 | COLISTIN | 1.67 | 1.33 | – | – | –

Now from value to molecule, other results behind:

Row | MIC [1] [µg/mL] | MIC [2] [µg/mL] | Molecule | MIC [3] [µg/mL] | MIC [4] [µg/mL] | MIC [5] [µg/mL]
7 | 128 | 64 | C[C@H]1c2cccc(O)c2C(=O)C2=C(O)[C@]3(O)C(=O)C(C(N)=O)=C(O)[C@@H](N(C)C)[C@@H]3[C@@H](O)[C@@H]21.O [DOXYCYCLINE] | – | – | –
8 | 26.7 (≈ 89.2 µM) | 26.7 (≈ 89.2 µM) | C[C@@H](O)[C@H]1C(=O)N2C(C(=O)O)=C(SCCNC=N)C[C@H]12 [IMIPENEM ANHYDROUS] | – | – | –
9 | 512 (≈ 1060 µM) | 853 (≈ 1760 µM) | NC[C@H]1O[C@H](O[C@H]2[C@H](O)[C@@H](O[C@H]3O[C@H](CO)[C@@H](O)[C@H](N)[C@H]3O)[C@H](N)C[C@@H]2N)[C@H](O)[C@@H](O)[C@@H]1O [KANAMYCIN] | – | – | –
10 | 1020 (≈ 2510 µM) | 1020 (≈ 2510 µM) | CCC[C@@H]1C[C@@H](C(=O)N[C@@H]([C@H]2O[C@H](SC)[C@H](O)[C@@H](O)[C@H]2O)[C@@H](C)O)N(C)C1 [LINCOMYCIN] | – | – | –
11 | 1020 (≈ 1240 µM) | 13.3 (≈ 16.2 µM) | CO[C@H]1/C=C/O[C@@]2(C)Oc3c(C)c(O)c4c(O)c(c(/C=N/N5CCN(C)CC5)c(O)c4c3C2=O)NC(=O)/C(C)=C\C=C\[C@H](C)[C@H](O)[C@@H](C)[C@@H](O)[C@@H](C)[C@H](OC(C)=O)[C@@H]1C [RIFAMPIN] | – | – | –
12 | 512 (≈ 1540 µM) | 853 (≈ 2570 µM) | CN[C@@H]1[C@H](O)[C@H](NC)[C@H]2O[C@@]3(O)C(=O)C[C@@H](C)O[C@H]3O[C@@H]2[C@H]1O [SPECTINOMYCIN] | – | – | –
13 | 53.3 (≈ 91.6 µM) | 256 (≈ 440 µM) | CN[C@@H]1[C@H](O[C@H]2[C@H](O[C@H]3[C@H](O)[C@@H](O)[C@H](N=C(N)N)[C@@H](O)[C@@H]3N=C(N)N)O[C@@H](C)[C@]2(O)C=O)O[C@@H](CO)[C@H](O)[C@H]1O [STREPTOMYCIN] | – | – | –
14 | 512 (≈ 1150 µM) | 128 (≈ 288 µM) | CN(C)[C@@H]1C(O)=C(C(N)=O)C(=O)[C@@]2(O)C(O)=C3C(=O)c4c(O)cccc4[C@@](C)(O)[C@H]3C[C@@H]12 [TETRACYCLINE] | – | – | –
